US20070212360A1, “Modulation of mitochondrial oxygen consumption for therapeutic purposes” (priority 2006, published 2007)

What was measured:
HIFwt and HIFko MEFs = experiment: Tirapazamine toxicity by colony formation (clonogenic viability); assay type: cell-based, mouse
Protocol: FIG. 6. HIF dependent decrease in oxygen consumption raises intracellular oxygen concentration, protects when oxygen is limiting, and decreases sensitivity to tirapazamine in vitro. A: Pimonidazole was used to determine the intracellular oxygen concentration of cells in culture. HIFwt and HIFko MEFs were grown at high density and exposed to 2% O2 or anoxia for 24 h in glass dishes. For the last 4 hours of treatment, cells were exposed to 60 μg/ml pimonidazole. Pimonidazole binding was quantitated by flow cytometry after binding of an FITC conjugated anti-pimo mAb. Results are representative of two independent experiments. B: HIF1α reduces oxygen consumption and protects cells when total oxygen is limited. HIFwt and HIFko cells were plated at high density and sealed in aluminum jigs at <0.02% oxygen. At the indicated times, cells were harvested and dead cells were quantitated by trypan blue exclusion. […] C. PDK1 is responsible for HIF-1's adaptive response when oxygen is limiting. A similar jig experiment was performed to measure survival in the parental RKO, the RKO ShRNAHIF1α and the RKOShPDK1 cells. Cell death by trypan blue uptake was measured 48 h after the jigs were sealed. D: HIF status alters sensitivity to TPZ in vitro. HIFwt and HIFko MEFs were grown at high density in glass dishes and exposed to 21%, 2%, and <0.01% O2 conditions for 18 hours in the presence of varying concentrations of Tirapazamine. After exposure, cells were harvested, and replated under normoxia to determine clonogenic viability. Survival is calculated relative to the plating efficiency of cells exposed to 0 μM TPZ for each oxygen concentration. Error bars represent the standard error of the mean. E: Cell density alters sensitivity to TPZ. HIFwt and HIFko MEFs were grown at varying cell densities in glass dishes and exposed to 2% O2 in the presence of 10 μM TPZ for 24 h. After the exposure, survival was determined as described in […].
Cell lines and cell culture. Primary human fibroblasts have been described previously (Denko et al., 2003; Kim et al., 1997) and RKO human colon carcinoma cells were obtained from the American Type Culture Collection (ATCC, Manassas, Va.). RCC4, RCC4/VHL, and RCC4/Y98H human renal cell carcinoma cell lines have also been described previously (Chan et al., 2005). Wildtype and HIF-1α knockout mouse embryo fibroblasts (MEFs) were a gift from Dr. R Johnson (University of California, San Diego). All cells were grown in vitro as monolayers in Dulbeco's Modified Eagle's Media (DMEM) supplemented with 10% fetal bovine serum (FBS). For treatment with moderate hypoxia, cell culture dishes were placed into an Invivo2 humidified hypoxia workstation (Ruskinn Technologies, Bridgend, UK) at the indicated oxygen concentrations. Severe hypoxia was generated in an anaerobic workstation with a palladium catalyst (Sheldon Co., Cornelius, Oreg.). Tirapazamine toxicity was measured in cells plated overnight at the indicated density in glass dishes. The next day, fresh media was added containing the indicated concentration of TPZ, and the cells placed in the indicated oxygen environment. 24 hours later, the cells were trypsinized, counted, and plated for colony formation in normoxia.
Because HIF-1 can help cells adapt to hypoxia and maintain some intracellular oxygen level, it may also protect tumor cells from killing by the hypoxic cytotoxin tirapazamine (TPZ). TPZ toxicity is very oxygen dependent, especially at oxygen levels between 1-4% (Koch, 1993). We therefore tested the relative sensitivity of the HIFwt and HIFko cells to TPZ killing in high density cultures (FIG. 6d). We exposed the cells to the indicated concentrations of drug and oxygen concentrations overnight. The cells were then harvested and replated to determine reproductive viability by colony formation. […] The lower oxygen level is significant enough to dramatically sensitize these cells to killing by TPZ.

[1] = system: RKO and RKOShHIF1α 5×HRE-luciferase reporter tumors; experiment: Bioluminescent imaging of HRE-luciferase reporter tumors in vivo; set-up: species or system mouse; settings: twelve hours after single dose 60 mg/kg tirapazamine ip
Protocol: FIG. 8. Increasing oxygen consumption by inhibition of PDK activity increases tumor hypoxia. (a) Luciferase activity of wildtype and HIF1α knockdown RKO cells stably transfected with a HIF1 responsive luciferase reporter gene. Cells were exposed to 0.5% O2 for 24 hours in triplicate. Luminescence is normalized to normoxic HIF wildtype cells. (b) Luciferase activity of wildtype RKO HIF1 reporter cells exposed to 0.5% O2 for 24 hours in the presence of increasing concentrations of echinomycin. Data are normalized to the increase in signal observed in the absence of drug. (c) Bioluminescent imaging in vivo. Images show a representative animal bearing an RKO reporter tumor on the left flank and an RKOShHIF1α reporter tumor on the right flank as a function of time after ip injection of 50 mg/kg DCA. […] (d) Quantification of in vivo bioluminescence. […] The data represent the mean of three independent experiments, each comprising 5 RKO and 5 RKOShHIF1α reporter tumors.
FIG. 14. Luciferase activity of hypoxia reporter tumors in response to tirapazamine. Mice bearing 500 mm^3 RKO HRE-luciferase tumors were imaged using an IVIS100 bioluminescent imaging system, and the signal from each tumor was quantified. […]
Bioluminescent imaging. […] After 10 min, bioluminescence was measured in a Xenogen IVIS100 imaging system (Xenogen). Data was quantified by measuring total photons/s from uniform regions of interest. […]

experimental tumors = settings: literature reference (28); cited from earlier work
[2] = system: primary human or immortalized mouse fibroblasts; experiment: Oxygen consumption of fibroblast suspensions (Clark electrode); assay type: cell-based
Protocol: FIG. 1. Hypoxia inhibits mitochondrial oxygen consumption. A: Oxygen concentration curves generated using a Clark electrode for fibroblast suspensions from cultures exposed to normoxia or hypoxia for 24 h. Arrows indicate addition of the mitochondrial uncoupler CCCP and cytochrome poison cyanide. The slope of the curve is a measure of the rate of oxygen consumption. B: Average oxygen consumption rates in normal human fibroblasts and immortalized murine fibroblasts cultured in normoxia or 0.5% O2 for 24 h. C: Fraction of total oxygen consumption due to mitochondrial versus non-mitochondrial consumption in wild-type murine fibroblasts. Mitochondrial consumption was determined using 1 ug/ml of the cell permeable complex 3 inhibitor Antimycin A. D: Change in oxygen consumption in RKO cells after exposure to the indicated time in 0.5% O2, and time to recovery in normoxia following 24 h hypoxia. For all graphs, the error bars represent the standard error of the mean.
Oxygen consumption measurements. […] Oxygen consumption was measured in a 0.5 ml volume using an Oxytherm electrode unit (Hansatech, Norfolk, UK). […]
HIF-1 downregulates mitochondrial oxygen consumption. Having identified several putative HIF-1 responsive gene products that had the potential to regulate mitochondrial function, we then directly measured mitochondrial oxygen consumption in cells exposed to long term hypoxia. […]

Row | Structure (SMILES) | cell-density effect on TPZ toxicity in HIFko cells (HIFwt and HIFko MEFs; 2% O2, 10 μM TPZ, 24 h, HIFko) | cell-density effect on TPZ toxicity in HIFwt cells (HIFwt and HIFko MEFs; 2% O2, 10 μM TPZ, 24 h, HIFwt, highest density cultures) | effect of increased cell density on TPZ toxicity (HIFwt and HIFko MEFs; 2% O2, 10 μM TPZ, 24 h, varying cell densities) | sensitivity of HIF-null cells to the drug relative to wild type cells (HIFwt and HIFko MEFs; 2% oxygen, high density cultures, overnight) | sensitivity to TPZ killing (colony formation), HIFwt vs HIFko (HIFwt and HIFko MEFs; 21% oxygen, high density cultures, overnight) | sensitivity to TPZ killing (colony formation), HIFwt vs HIFko (HIFwt and HIFko MEFs; anoxic conditions, high density cultures, overnight) | reduction of luciferase signal of HRE-reporter tumors [1] | reduction of the hypoxic fraction of experimental tumors (experimental tumors) | effect on total cellular oxygen consumption ([2]; fibroblast suspensions from normoxic and hypoxic (24 h) cultures, mitochondrial uncoupler) | effect on oxygen consumption in hypoxia treated cells ([2]; hypoxia treated cells)
1 | Nc1n[n+]([O-])c2ccccc2[n+]1[O-] [tirapazamine] | much more pronounced | some increased toxicity | increased TPZ toxicity | significantly greater sensitivity | equally resistant | equally sensitive | 90% | greater than 10 fold |  | 
2 | N#CC(C#N)=NNc1cccc(Cl)c1 [CCCP, carbonyl cyanide 3-chloro phenylhydrazone] |  |  |  |  |  |  |  |  | stimulated | increase oxygen consumption
